Experimental data taken from ChEMBL document CHEMBL1641589, “Phosphoramidate pronucleotides of cytostatic 6-aryl-7-deazapurine ribonucleosides” (Bioorg Med Chem, 2011).

Tests used:
[1] = Cytotoxicity against human Hs578 cells after 5 days by SRB assay; format: functional; details: Hs578, 120 h
[2] = Chemical stability of the compound assessed as specific activity per ug at 30 uM after 30 mins in presence of purified carboxylesterase 2; format: physicochemical; details: isolated protein, 0.5 h
[3] = Chemical stability of the compound assessed as specific activity per ug at 30 uM after 30 mins in presence of purified carboxylesterase 1; format: physicochemical; details: isolated protein, 0.5 h
CCRF-CEM [4] = test: Cytotoxicity against human CCRF-CEM cells after 3 days by XTT assay; format: functional, cell-based; details: 72 h
DU-145 = test: Cytotoxicity against human DU145 cells after 5 days by SRB assay; format: functional; details: DU-145, 120 h
HL-60 = test: Cytotoxicity against human HL60 cells after 5 days by SRB assay; format: functional; details: HL-60, 120 h
[5] = Chemical stability of the compound assessed as specific activity per ug at 30 uM after 30 mins in presence of purified cathepsin A; format: physicochemical; details: 0.5 h
[6] = Cytotoxicity against human HeLaS3 cells after 3 days by XTT assay; format: functional, cell-based; details: HeLa S3, 72 h
NCI-H23 = test: Cytotoxicity against human NCI-H23 cells after 5 days by SRB assay; format: functional; details: NCI-H23, 120 h
HCT-116 = test: Cytotoxicity against human HCT116 cells after 5 days by SRB assay; format: functional; details: HCT-116, 120 h
HepG2 = test: Cytotoxicity against human HepG2 cells after 3 days by XTT assay; format: functional, cell-based; details: HepG2, 72 h
CCRF-CEM [7] = test: Cell cycle arrest in human CCRF-CEM cells assessed as increased of cellular debris level at IC50 concentration using propidium iodide staining by flow cytometry relative to control; format: functional
CCRF-CEM [8] = test: Cell cycle arrest in human CCRF-CEM cells assessed as accumulation at S phase at IC50 concentration using propidium iodide staining by flow cytometry relative to control; format: functional
CCRF-CEM [9] = test: Cell cycle arrest in human CCRF-CEM cells assessed as accumulation at G1 phase at IC50 concentration using propidium iodide staining by flow cytometry relative to control; format: functional
CCRF-CEM [10] = test: Cell cycle arrest in human CCRF-CEM cells assessed as accumulation at G2/M phase at IC50 concentration using propidium iodide staining by flow cytometry relative to control; format: functional
[11] = Permeability from apical to basolateral side of human Caco2 cells at 10 uM after 60 to 120 mins by HPLC analysis; format: ADME, cell-based; details: Caco-2
[12] = Efflux ratio of permeability from basolateral to apical side over apical to basolateral side in human Caco2 cells at 10 uM after 60 to 120 mins by HPLC analysis; format: ADME, cell-based; details: Caco-2
[13] = Permeability from apical to basolateral side at 10 uM after 60 to 120 mins by HPLC analysis; format: ADME; details: not told
[14] = Permeability from basolateral to apical side of human Caco2 cells at 10 uM after 60 to 120 mins by HPLC analysis; format: ADME, cell-based; details: Caco-2

| SMILES | GI50 [1] [µM] | Stability [2] [pmol/min] | Stability [3] [pmol/min] | IC50 (CCRF-CEM [4]) [µM] | GI50 (DU-145) [µM] | GI50 (HL-60) [µM] | Stability [5] [pmol/min] | IC50 [6] [µM] | GI50 (NCI-H23) [µM] | GI50 (HCT-116) [µM] | IC50 (HepG2) [µM] | Activity (CCRF-CEM [7]) [%] | Activity (CCRF-CEM [8]) [%] | Activity (CCRF-CEM [9]) [%] | Activity (CCRF-CEM [10]) [%] | Papp A→B at 10 µM [11] [nm/s] | efflux ratio at 10 µM [12] | Papp A→B at 10 µM [13] [nm/s] | Papp B→A at 10 µM [14] [nm/s] |
| --- | --- | --- | --- | --- | --- | --- | --- | --- | --- | --- | --- | --- | --- | --- | --- | --- | --- | --- | --- |
| COC(=O)[C@H](C)NP(=O)(OC[C@H]1O[C@@H](n2ccc3c(-c4ccco4)ncnc32)[C@H](O)[C@@H]1O)Oc1ccccc1 (stereo partly drawn) | 2.31 | 0 | 86 | 3.44 | 1.19 | 3.31 | 1249 | 1.4 | 4.63 | 1.03 | 1.2 | – | – | – | – | – | – | – | – |
| CCOC(=O)[C@H](C)NP(=O)(OC[C@H]1O[C@@H](n2ccc3c(-c4ccco4)ncnc32)[C@H](O)[C@@H]1O)Oc1ccccc1 (stereo partly drawn) | 2.18 | 0 | 149 | 3.34 | 2.29 | 4.86 | 11989 | 1.02 | 2.87 | 2.5 | 1.42 | 42.5 | 55.3 | 26.6 | 18.06 | – | – | – | – |
| C[C@H](NP(=O)(OC[C@H]1O[C@@H](n2ccc3c(-c4ccco4)ncnc32)[C@H](O)[C@@H]1O)Oc1ccccc1)C(=O)OCc1ccccc1 (stereo partly drawn) | 1.04 | 0 | 133 | 1.13 | 1.36 | 2.19 | 14727 | 0.58 | 1.91 | 1.08 | 0.62 | 48.8 | 54.7 | 31.6 | 13.7 | – | – | – | – |
| COC(=O)[C@H](C)NP(=O)(OC[C@H]1O[C@@H](n2ccc3c(-c4ccoc4)ncnc32)[C@H](O)[C@@H]1O)Oc1ccccc1 (stereo partly drawn) | > 10 | – | – | > 10 | 3.86 | > 10 | – | 7.84 | > 10 | 7.95 | 3.61 | – | – | – | – | – | – | – | – |
| CCOC(=O)[C@H](C)NP(=O)(OC[C@H]1O[C@@H](n2ccc3c(-c4ccoc4)ncnc32)[C@H](O)[C@@H]1O)Oc1ccccc1 (stereo partly drawn) | 5.97 | – | – | > 10 | 9.05 | > 10 | – | 4.89 | 8.28 | 9.06 | 2.96 | – | – | – | – | – | – | – | – |
| C[C@H](NP(=O)(OC[C@H]1O[C@@H](n2ccc3c(-c4ccoc4)ncnc32)[C@H](O)[C@@H]1O)Oc1ccccc1)C(=O)OCc1ccccc1 (stereo partly drawn) | 1.1 | – | – | 3.11 | 1.09 | > 10 | – | 1.31 | 5.19 | 1.42 | 2.01 | 21.5 | 54 | 37.5 | 8.4 | – | – | – | – |
| COC(=O)[C@H](C)NP(=O)(OC[C@H]1O[C@@H](n2ccc3c(-c4cccs4)ncnc32)[C@H](O)[C@@H]1O)Oc1ccccc1 (stereo partly drawn) | 6.59 | – | – | 8.47 | 3.23 | > 10 | – | 2.51 | 6.79 | 6.22 | 1.41 | – | – | – | – | 7.4 | 13.3 | 351 | 97.5 |
| CCOC(=O)[C@H](C)NP(=O)(OC[C@H]1O[C@@H](n2ccc3c(-c4cccs4)ncnc32)[C@H](O)[C@@H]1O)Oc1ccccc1 (stereo partly drawn) | 9.6 | – | – | > 10 | > 10 | > 10 | – | 5.93 | 10.9 | > 10 | 1.53 | – | – | – | – | 7.6 | 12.7 | 338 | 96.2 |
| C[C@H](NP(=O)(OC[C@H]1O[C@@H](n2ccc3c(-c4cccs4)ncnc32)[C@H](O)[C@@H]1O)Oc1ccccc1)C(=O)OCc1ccccc1 (stereo partly drawn) | 1.42 | – | – | 2.09 | 0.989 | – | – | 1.56 | 5.12 | 0.68 | 0.88 | 49.5 | 57.9 | 30.7 | 11.5 | 11 | 12 | 299 | 132 |
| COC(=O)[C@H](C)NP(=O)(OC[C@H]1O[C@@H](n2ccc3c(-c4ccsc4)ncnc32)[C@H](O)[C@@H]1O)Oc1ccccc1 (stereo partly drawn) | > 10 | 0 | 167 | > 10 | > 10 | > 10 | 1496 | > 10 | > 10 | > 10 | > 10 | – | – | – | – | – | – | – | – |
| CCOC(=O)[C@H](C)NP(=O)(OC[C@H]1O[C@@H](n2ccc3c(-c4ccsc4)ncnc32)[C@H](O)[C@@H]1O)Oc1ccccc1 (stereo partly drawn) | > 10 | – | – | > 10 | > 10 | > 10 | – | > 10 | > 10 | > 10 | > 10 | – | – | – | – | – | – | – | – |
| C[C@H](NP(=O)(OC[C@H]1O[C@@H](n2ccc3c(-c4ccsc4)ncnc32)[C@H](O)[C@@H]1O)Oc1ccccc1)C(=O)OCc1ccccc1 (stereo partly drawn) | 7.56 | – | – | > 10 | 3.57 | > 10 | – | 5.45 | 7.44 | 7.51 | 4.58 | 22.2 | 54.2 | 35.9 | 9.9 | – | – | – | – |
| COC(=O)[C@H](C)NP(=O)(OC[C@H]1O[C@@H](n2ccc3c(-c4ccccc4)ncnc32)[C@H](O)[C@@H]1O)Oc1ccccc1 (stereo partly drawn) | > 10 | – | – | > 10 | > 10 | > 10 | – | > 10 | > 10 | > 10 | > 10 | – | – | – | – | – | – | – | – |
| CCOC(=O)[C@H](C)NP(=O)(OC[C@H]1O[C@@H](n2ccc3c(-c4ccccc4)ncnc32)[C@H](O)[C@@H]1O)Oc1ccccc1 (stereo partly drawn) | > 10 | – | – | > 10 | – | > 10 | – | > 10 | – | > 10 | > 10 | – | – | – | – | – | – | – | – |
| C[C@H](NP(=O)(OC[C@H]1O[C@@H](n2ccc3c(-c4ccccc4)ncnc32)[C@H](O)[C@@H]1O)Oc1ccccc1)C(=O)OCc1ccccc1 (stereo partly drawn) | > 10 | – | – | > 10 | – | 5.65 | – | > 10 | – | > 10 | > 10 | – | – | – | – | – | – | – | – |
| COC(=O)[C@H](C)NP(=O)(OC[C@H]1O[C@@H](n2ccc3c(-c4cccc5c4oc4ccccc45)ncnc32)[C@H](O)[C@@H]1O)Oc1ccccc1 (stereo partly drawn) | > 10 | – | – | > 10 | – | > 10 | – | > 10 | – | > 10 | > 10 | – | – | – | – | – | – | – | – |
| CCOC(=O)[C@H](C)NP(=O)(OC[C@H]1O[C@@H](n2ccc3c(-c4cccc5c4oc4ccccc45)ncnc32)[C@H](O)[C@@H]1O)Oc1ccccc1 (stereo partly drawn) | > 10 | – | – | > 10 | – | > 10 | – | > 10 | – | > 10 | > 10 | – | – | – | – | – | – | – | – |
| C[C@H](NP(=O)(OC[C@H]1O[C@@H](n2ccc3c(-c4cccc5c4oc4ccccc45)ncnc32)[C@H](O)[C@@H]1O)Oc1ccccc1)C(=O)OCc1ccccc1 (stereo partly drawn) | > 10 | – | – | > 10 | – | > 10 | – | > 10 | – | > 10 | > 10 | – | – | – | – | – | – | – | – |
| OC[C@H]1O[C@@H](n2ccc3c(-c4cccc5c4oc4ccccc45)ncnc32)[C@H](O)[C@@H]1O | > 10 | – | – | > 10 | – | > 10 | – | > 10 | – | > 10 | > 10 | – | – | – | – | – | – | – | – |
| OC[C@H]1O[C@@H](n2ccc3c(-c4ccoc4)ncnc32)[C@H](O)[C@@H]1O | – | – | – | – | – | 1.5 | – | – | – | – | 1.72 | – | – | – | – | – | – | – | – |
| OC[C@H]1O[C@@H](n2ccc3c(-c4ccsc4)ncnc32)[C@H](O)[C@@H]1O | – | – | – | – | – | > 40 | – | – | – | – | 3.22 | – | – | – | – | – | – | – | – |
| OC[C@H]1O[C@@H](n2ccc3c(-c4ccco4)ncnc32)[C@H](O)[C@@H]1O | – | – | – | – | – | 0.81 | – | – | – | – | 0.47 | – | – | – | – | – | – | – | – |
| OC[C@H]1O[C@@H](n2ccc3c(-c4ccccc4)ncnc32)[C@H](O)[C@@H]1O | 3.1 | – | – | 1 | 0.075 | – | – | 4.1 | – | 5.7 | > 10 | – | – | – | – | – | – | – | – |
| OC[C@H]1O[C@@H](n2ccc3c(-c4cccs4)ncnc32)[C@H](O)[C@@H]1O | – | – | – | 8.8 | – | 1.2 | – | 0.29 | – | – | 1.19 | – | – | – | – | 15.7 | 5.9 | 341 | 93.1 |
